# Measured values published in ChEMBL document CHEMBL4270506, “Recent advances in drug discovery of phototherapeutic non-porphyrinic anticancer agents” (Eur J Med Chem, 2017).
# pEC50, pIC50: −log10 of the molar value.
# What was measured:
# [1] = Dark toxicity in mouse B16F10 cells assessed as reduction in cell viability after 24 hrs by MTT assay; format: cell-based, B16-F10
# [2] = tested on: B16-F10; test: Phototoxicity in mouse B16F10 cells assessed as reduction in cell viability under irradiation with >500 nm light after 24 hrs by MTT assay; format: functional, cell-based; conditions: B16-F10, light or radiation study
# [3] = Dark toxicity in human C8161 cells assessed as reduction in cell viability after 24 hrs by MTT assay; format: cell-based
# [4] = Phototoxicity in human C8161 cells assessed as reduction in cell viability under irradiation with >500 nm light after 24 hrs by MTT assay; format: functional, cell-based; conditions: C8161, light or radiation study
# [5] = Dark toxicity in human PBMC assessed as reduction in cell viability after 24 hrs by MTT assay; format: cell-based
# [6] = tested on: PBMC; test: Phototoxicity in human PBMC assessed as reduction in cell viability under irradiation with >500 nm light after 24 hrs by MTT assay; format: cell-based; conditions: light or radiation study
# [7] = tested on: PBMC; test: Phototoxicity in human PBMC assessed as reduction in cell viability at 20 uM under irradiation with >500 nm light after 24 hrs by MTT assay; format: cell-based
# [8] = Dark toxicity in human MCF7/DX cells assessed as inhibition of cell growth at 1 uM after 24 hrs by MTT assay; format: cell-based; conditions: read-out: GI
# [9] = Phototoxicity in human MCF7/DX cells assessed as inhibition of cell growth at 1 uM pre-incubated for 4 hrs before photoirradiation with 530 to 550 nm light and measured after 24 hrs post irradiation by MTT assay; format: functional; conditions: light or radiation study, read-out: GI
# [10] = Phototoxicity in human MCF7/DX cells assessed as inhibition of cell growth at 1 uM pre-incubated for 24 hrs before photoirradiation with 530 to 550 nm light and measured after 24 hrs post irradiation by MTT assay; format: functional; conditions: light or radiation study, read-out: GI
# [11] = Phototoxicity in human MCF7/DX cells assessed as inhibition of cell growth at 1 uM pre-incubated for 4 hrs before photoirradiation with 630 nm light and measured after 24 hrs post irradiation by MTT assay; format: functional; conditions: light or radiation study, read-out: GI
# [12] = Phototoxicity in human MCF7/DX cells assessed as inhibition of cell growth at 1 uM pre-incubated for 24 hrs before photoirradiation with 630 nm light and measured after 24 hrs post irradiation by MTT assay; format: functional; conditions: light or radiation study, read-out: GI
# [13] = Dark toxicity in wild type human MCF7 cells assessed as inhibition of cell growth at 1 uM after 24 hrs by MTT assay; format: cell-based; conditions: read-out: GI
# [14] = tested on: MCF7; test: Phototoxicity in wild type human MCF7 cells assessed as inhibition of cell growth at 1 uM pre-incubated for 4 hrs before photoirradiation with 530 to 550 nm light and measured after 24 hrs post irradiation by MTT assay; format: functional; conditions: MCF7, light or radiation study, read-out: GI
# [15] = tested on: MCF7; test: Phototoxicity in wild type human MCF7 cells assessed as inhibition of cell growth at 1 uM pre-incubated for 24 hrs before photoirradiation with 530 to 550 nm light and measured after 24 hrs post irradiation by MTT assay; format: functional; conditions: MCF7, light or radiation study, read-out: GI
# [16] = tested on: MCF7; test: Phototoxicity in wild type human MCF7 cells assessed as inhibition of cell growth at 1 uM pre-incubated for 4 hrs before photoirradiation with 630 nm light and measured after 24 hrs post irradiation by MTT assay; format: functional; conditions: MCF7, light or radiation study, read-out: GI
# [17] = tested on: MCF7; test: Phototoxicity in wild type human MCF7 cells assessed as inhibition of cell growth at 1 uM pre-incubated for 24 hrs before photoirradiation with 630 nm light and measured after 24 hrs post irradiation by MTT assay; format: functional; conditions: MCF7, light or radiation study, read-out: GI
# [18] = tested on: HeLa; test: Phototoxicity in human HeLa cells assessed as reduction in cell viability in presence of irradiation with 625 nm laser light by MTT assay; format: functional, cell-based; conditions: light or radiation study
# [19] = Phototoxicity in human MCF7/DX cells assessed as inhibition of cell growth at 1 uM pre-incubated for 4 hrs before photoirradiation with 430 nm light and measured after 24 hrs post irradiation by MTT assay; format: functional; conditions: light or radiation study, read-out: GI
# [20] = Phototoxicity in human MCF7/DX cells assessed as inhibition of cell growth at 1 uM pre-incubated for 24 hrs before photoirradiation with 430 nm light and measured after 24 hrs post irradiation by MTT assay; format: functional; conditions: light or radiation study, read-out: GI
# [21] = tested on: MCF7; test: Phototoxicity in wild type human MCF7 cells assessed as inhibition of cell growth at 1 uM pre-incubated for 4 hrs before photoirradiation with 430 nm light and measured after 24 hrs post irradiation by MTT assay; format: functional; conditions: MCF7, light or radiation study, read-out: GI
# [22] = tested on: MCF7; test: Phototoxicity in wild type human MCF7 cells assessed as inhibition of cell growth at 1 uM pre-incubated for 24 hrs before photoirradiation with 430 nm light and measured after 24 hrs post irradiation by MTT assay; format: functional; conditions: MCF7, light or radiation study, read-out: GI
# [23] = Dark toxicity in human MDA-MB-231 cells assessed as reduction in cell viability by MTT assay; format: cell-based
# [24] = tested on: MDA-MB-231; test: Phototoxicity in human MDA-MB-231 cells assessed as reduction in cell viability pre-incubated for 1 hr before photo-irradiation with 700 mW-630 nm laser light for 15 mins by MTT assay; format: functional, cell-based; conditions: MDA-MB-231, light or radiation study
# [25] = Dark toxicity in human MCF7 cells assessed as reduction in cell viability by MTT assay; format: cell-based
# [26] = tested on: MCF7; test: Phototoxicity in human MCF7 cells assessed as reduction in cell viability pre-incubated for 1 hr before photo-irradiation with 700 mW-630 nm laser light for 15 mins by MTT assay; format: functional, cell-based; conditions: MCF7, light or radiation study
# [27] = Dark toxicity in human MCF10A cells assessed as reduction in cell viability by MTT assay; format: cell-based, MCF-10A
# [28] = tested on: MCF-10A; test: Phototoxicity in human MCF10A cells assessed as reduction in cell viability pre-incubated for 1 hr before photo-irradiation with 700 mW-630 nm laser light for 15 mins by MTT assay; format: cell-based; conditions: light or radiation study
# [29] = Dark toxicity in human SCC131 cells assessed as reduction in cell viability by MTT assay; format: cell-based
# [30] = Phototoxicity in human SCC131 cells assessed as reduction in cell viability pre-incubated for 1 hr before photo-irradiation with 700 mW-630 nm laser light for 15 mins by MTT assay; format: functional, cell-based; conditions: SCC131, light or radiation study
# [31] = Dark toxicity in human SCC172 cells assessed as reduction in cell viability by MTT assay; format: cell-based
# [32] = Phototoxicity in human SCC172 cells assessed as reduction in cell viability pre-incubated for 1 hr before photo-irradiation with 700 mW-630 nm laser light for 15 mins by MTT assay; format: functional, cell-based; conditions: SCC172, light or radiation study
# [33] = Dark toxicity in human HCT116 cells assessed as reduction in cell viability by MTT assay; format: cell-based, HCT-116
# [34] = tested on: HCT-116; test: Phototoxicity in human HCT116 cells assessed as reduction in cell viability pre-incubated for 1 hr before photo-irradiation with 700 mW-630 nm laser light for 15 mins by MTT assay; format: functional, cell-based; conditions: HCT-116, light or radiation study
# [35] = Dark toxicity in human HeLa cells assessed as reduction in cell viability by MTT assay; format: cell-based
# [36] = tested on: HeLa; test: Phototoxicity in human HeLa cells assessed as reduction in cell viability pre-incubated for 1 hr before photo-irradiation with 700 mW-630 nm laser light for 15 mins by MTT assay; format: functional, cell-based; conditions: light or radiation study
# [37] = Dark toxicity in human SiHa cells assessed as reduction in cell viability by MTT assay; format: cell-based
# [38] = tested on: SiHa; test: Phototoxicity in human SiHa cells assessed as reduction in cell viability pre-incubated for 1 hr before photo-irradiation with 700 mW-630 nm laser light for 15 mins by MTT assay; format: functional, cell-based; conditions: light or radiation study
# [39] = Dark toxicity in human MIAPaCa2 cells assessed as reduction in cell viability by MTT assay; format: cell-based, MIA PaCa-2
# [40] = tested on: MIA PaCa-2; test: Phototoxicity in human MIAPaCa2 cells assessed as reduction in cell viability pre-incubated for 1 hr before photo-irradiation with 700 mW-630 nm laser light for 15 mins by MTT assay; format: functional, cell-based; conditions: MIA PaCa-2, light or radiation study
# [41] = Dark toxicity in mouse L5178Y cells assessed as cell viability at 0.5 uM; format: cell-based; conditions: read-out: Activity
# [42] = tested on: L5178Y; test: Phototoxicity in mouse L5178Y cells assessed as cell viability at 0.5 uM under irradiation by visible light at 337.5 kJ/m2 between 400 to 800 nm; format: functional; conditions: light or radiation study, read-out: Activity
# [43] = Dark toxicity in Chinese hamster AS52 cells assessed as cloning efficiency at 1 uM; format: cell-based, Cricetulus griseus
# [44] = Phototoxicity in Chinese hamster AS52 cells assessed as cloning efficiency at 1 uM under irradiation by visible light at 337.5 kJ/m2 between 400 to 800 nm; format: functional, Cricetulus griseus
# [45] = tested on: HeLa; test: Phototoxicity in human HeLa cells assessed as reduction in cell viability in presence of irradiation with 700 to 1000 nm near-infrared light; format: functional, cell-based; conditions: light or radiation study
# [46] = tested on: HeLa; test: Phototoxicity in human HeLa cells assessed as reduction in cell viability in presence of irradiation with white light; format: functional, cell-based; conditions: light or radiation study
# [47] = Phototoxicity in human keloid fibroblasts assessed as cell viability at 2 to 8 umol/L pre-incubated for 4 hrs before 0.5 J.cm2 UVA irradiation by MTT assay; format: functional
compound,measurement,setting,value
CCN1/C(=C\C=C\c2sc3cc4c(cc3[n+]2CC)sc(/C=C/C=C2\N(CC)c3ccccc3C2(C)C)[n+]4CC)C(C)(C)c2ccccc21,IC50 at 24 h,[1],20 µM
same,pIC50,[2],5.30
same,IC50 at 24 h,[3],20 µM
same,pIC50,[4],5.30
same,IC50 at 24 h,[5],20 µM
same,pIC50,[6],4.70
same,Activity,[7],<= 70%
CCN1/C(=C/C(C)=C/c2sc3ccccc3[n+]2CC)Sc2ccccc21,"inhibition at 24 h, 1 µM",[8],10%
same,inhibition of growth at 1 µM,[9],20%
same,inhibition of growth at 1 µM,[10],20%
same,inhibition of growth at 1 µM,[11],60%
same,inhibition of growth at 1 µM,[12],> 80%
same,"inhibition at 24 h, 1 µM",[13],20%
same,inhibition of growth at 1 µM,[14],60%
same,inhibition of growth at 1 µM,[15],60%
same,inhibition of growth at 1 µM,[16],50%
same,inhibition of growth at 1 µM,[17],80%
COC(=O)c1ccc(C2=C3C(Br)=c4sc(-c5ccc(Br)s5)cc4=[N+]3[B-](F)(F)n3c2cc2sc(-c4ccc(Br)s4)cc23)cc1,pIC50,[18],5.15
CCN1C(=O)/C(=C\C=C2/SCCN2C)OC1=S,"inhibition at 24 h, 1 µM",[8],10%
same,inhibition of growth at 1 µM,[19],40%
same,inhibition of growth at 1 µM,[20],10%
same,"inhibition at 24 h, 1 µM",[13],20%
same,inhibition of growth at 1 µM,[21],> 40%
same,inhibition of growth at 1 µM,[22],20%
O=C1C(I)=C(O)C(=C2C(=O)C(c3c(O)c(I)c(O)c(I)c3O)=C2O)C(O)=C1I,pIC50,[23],< 4.30
same,pIC50,[24],4.70
same,pIC50,[25],< 4.30
same,pIC50,[26],4.60
same,pIC50,[27],< 4.30
same,pIC50,[28],4.35
same,pIC50,[29],< 4.30
same,pIC50,[30],4.51
same,pIC50,[31],< 4.30
same,pIC50,[32],4.46
same,pIC50,[33],< 4.30
same,pIC50,[34],4.59
same,pIC50,[35],< 4.30
same,pIC50,[36],4.44
same,pIC50,[37],< 4.30
same,pIC50,[38],4.47
same,pIC50,[39],< 4.30
same,pIC50,[40],4.55
same,viability at 0.5 µM,[41],90%
same,viability at 0.5 µM,[42],< 10%
same,Activity,[43],90%
same,Activity,[44],10%
Nc1ccc(-c2ccc3nc4ccc(-c5ccc(N)cc5)cc4[s+]c3c2)cc1,pEC50,[45],5.10
same,pEC50,[46],5.22
Nc1ccc(-c2nc3ccccc3s2)cc1,Activity,[47],50%
